Data set [1] relates to HSV1-TK. Format: in vivo, mice. To be noted: 3 h after iv injection, 150 mg/kg, 5 ppm, n=8. From the text: (§1) At the last time point of the experiment the full CEST-spectrum was acquired for each animal with the same parameters described in the Experimental Section (main text) except the followings: CEST-weighted images were acquired with a modified RARE pulse sequence (TR/TE=6000/35 ms), using a 213 Hz/4000 ms saturation pulse from −6 to +6 ppm around the water resonance, which was assigned to be at 0 ppm. Pixel-based B0 correction was used as described before (Kim, M. et al. Magn Reson Med 2009, 61, 1441) using the same parameters as above except for TR=1500 ms, B1/tsat=21 Hz/500 ms, with a sweep range from −1 to +1 ppm (0.1 ppm steps). Mean CEST spectra were plotted from an ROI for each tumor and normal brain tissue, after B0 correction. MTRasym=100×(S^−Δω−S^Δω)/S0 was computed at different offsets Δω.
(§2) pcDNA3.1-HSV1-tk was used to transfect 9L rat glioma cells. A single clone was selected with 0.5 mg/mL G418 antibiotics. 9L^HSV1-tk and nontransfected wild type 9L cells (9L^wt) were inoculated (2×10^5 cells/2 μL saline) bilaterally into the striatum of adult NOD-SCID male mice to generate intracranial 9L tumors in both hemispheres.
(§3) Data were acquired using a horizontal 11.7 T MRI scanner (Bruker, Biospec) equipped with a circular polarized MRI transceiver coil (i.d.=23 mm) Seven days after cell transplantation, mice were anesthetized with 1.5% isoflurane, and a series of […] CEST data sets were obtained at 1, 2, and 3 h following intravenous (iv) injection of 2 in saline (150 mg/kg body). CEST weighted images were acquired with a modified RARE pulse sequence (TR/TE=6000/35 ms), using a 213 Hz/4000 ms saturation pulse alternating between ±5 ppm frequency offsets from the water frequency. For each time point, the MTRasym map was calculated from four pairs of s−5 ppm/s+5 ppm using MATLAB (Mathworks). A single 1 mm slice with FOV of 1.6×1.6 cm^2 and a 128×48 matrix was used.

Data set [2] has as its target T1, HSV1-TK (Human herpesvirus 1, UniProt P0DTH5).
T1 construct: V5; expressed in transfected cells; host or cells: 9L rat glioma cells transfected with pcDNA3.1-HSV1-tk, single G418-selected clone, implanted in NOD-SCID mouse brain
Format: in vivo, mice.
Description: as §1, §2, §3

Structures are written as SMILES.

The source of these data is patent US20160082133A1, “CHEMICAL EXCHANGE SATURATION TRANSFER (CEST) BASED MRI USING REPORTER GENES AND SUBSTRATES AND METHODS THEREOF” (The Johns Hopkins University, priority 2013, published 2016).

T1 sequence (P0DTH5 whole entry): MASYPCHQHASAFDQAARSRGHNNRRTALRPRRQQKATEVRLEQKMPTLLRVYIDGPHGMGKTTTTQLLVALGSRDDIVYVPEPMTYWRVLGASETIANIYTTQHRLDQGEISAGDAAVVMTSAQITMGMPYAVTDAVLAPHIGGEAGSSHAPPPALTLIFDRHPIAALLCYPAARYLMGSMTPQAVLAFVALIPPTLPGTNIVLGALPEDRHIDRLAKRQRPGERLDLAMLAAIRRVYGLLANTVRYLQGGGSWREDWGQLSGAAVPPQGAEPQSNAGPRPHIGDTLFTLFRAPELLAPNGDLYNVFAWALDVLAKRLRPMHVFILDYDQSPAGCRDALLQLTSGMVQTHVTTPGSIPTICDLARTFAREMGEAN

In the case of `CC1(C)CN([C@H]2C[C@H](O)[C@@H](CO)O2)C(=O)NC1=O` [Compound 2, 5-Methyl-5,6-dihydrothymidine], in the data set with HSV1-TK [1], the “normalized mean MTRasym values (ΔMTRasym), 9L^wt tumor” value is on record as 2.0±1.7. Moreover, the “average difference in ΔMTRasym between the two tumor types (full CEST spectrum)” value at HSV1-TK [2] (5.0 ppm, last time point, N=8) is given as “approximately 0.77%”. On HSV1-TK [2] (3 h after iv injection, 150 mg/kg, 5 ppm, n=8), the “normalized mean MTRasym values (ΔMTRasym), 9L^HSV1-tk tumor” value was 4.5±1.5. Also, the “estimated intracellular concentration in 9L^HSV1-tk tumors” value on HSV1-TK [2] (from calibration curve, in vivo) was “approximately 0.7 mM”.
